Measurements as given in US20240018145A1, “[…]-DEPENDENT EN[…] TREATING OR […]” (priority 2020, published 2024).

Test system: FLU A (PR/8/34)
Experiment: Flu A Neuraminidase Antiviral Assay
Type: cell-based

Row | Compound | EC50
1 | CN1C(=O)c2c(O)c(=O)ccn2N2C(c3ccccc3)C(C3(C(F)(F)F)CC3)CCC12 (single isomer, unassigned) [Compound 108B, 7-hydroxy-5-methyl-1-phenyl-2-(1-(trifluoromethyl)cyclopropyl)-1,2,3,4,4a,5-hexahydrodipyrido[1,2-b:2′,1′-f][1,2,4]triazine-6,8-dione] | 9.4 nM
2 | CC(C1CCC2N(C)C(=O)c3c(O)c(=O)ccn3N2C1c1ccccc1)C(F)(F)F (single isomer, unassigned) [Compound 109A, 7-hydroxy-5-methyl-1-phenyl-2-(1,1,1-trifluoropropan-2-yl)-1,2,3,4,4a,5-hexahydrodipyrido[1,2-b:2′,1′-f][1,2,4]triazine-6,8-dione] | 803 nM
3 | CC(C1CCC2N(C)C(=O)c3c(O)c(=O)ccn3N2C1c1ccccc1)C(F)(F)F (single isomer, unassigned) [Compound 109B, 7-hydroxy-5-methyl-1-phenyl-2-(1,1,1-trifluoropropan-2-yl)-1,2,3,4,4a,5-hexahydrodipyrido[1,2-b:2′,1′-f][1,2,4]triazine-6,8-dione] | 5.4 nM
4 | CCN1C(=O)c2c(O)c(=O)ccn2N2C(c3ccccc3)C(CCC(F)F)CCC12 (single isomer, unassigned) [Compound 110A, 2-(3,3-difluoropropyl)-5-ethyl-7-hydroxy-1-phenyl-1,2,3,4,4a,5-hexahydrodipyrido[1,2-b:2′,1′-f][1,2,4]triazine-6,8-dione] | 1120 nM
5 | CCN1C(=O)c2c(O)c(=O)ccn2N2C(c3ccccc3)C(CCC(F)F)CCC12 (single isomer, unassigned) [Compound 110B, 2-(3,3-difluoropropyl)-5-ethyl-7-hydroxy-1-phenyl-1,2,3,4,4a,5-hexahydrodipyrido[1,2-b:2′,1′-f][1,2,4]triazine-6,8-dione] | 5.5 nM
6 | CN1C(=O)c2c(O)c(=O)ccn2N2C(c3ccccc3)C(CC(F)(F)F)CCC12C (single isomer, unassigned) [Compound 111A, 7-hydroxy-4a,5-dimethyl-1-phenyl-2-(2,2,2-trifluoroethyl)-1,2,3,4,4a,5-hexahydrodipyrido[1,2-b:2′,1′-f][1,2,4]triazine-6,8-dione] | > 8100 nM
7 | CN1C(=O)c2c(O)c(=O)ccn2N2C(c3ccccc3)C(CC(F)(F)F)CCC12C (single isomer, unassigned) [Compound 111B, 7-hydroxy-4a,5-dimethyl-1-phenyl-2-(2,2,2-trifluoroethyl)-1,2,3,4,4a,5-hexahydrodipyrido[1,2-b:2′,1′-f][1,2,4]triazine-6,8-dione] | 3.3 nM
8 | CCc1ccccc1C1C(CC(F)(F)F)CCC2N(C)C(=O)c3c(O)c(=O)ccn3N12 (single isomer, unassigned) [Compound 112A, 1-(2-ethylphenyl)-7-hydroxy-5-methyl-2-(2,2,2-trifluoroethyl)-1,2,3,4,4a,5-hexahydrodipyrido[1,2-b:2′,1′-f][1,2,4]triazine-6,8-dione] | 3.7 nM
9 | CCc1ccccc1C1C(CC(F)(F)F)CCC2N(C)C(=O)c3c(O)c(=O)ccn3N12 (single isomer, unassigned) [Compound 112B, 1-(2-ethylphenyl)-7-hydroxy-5-methyl-2-(2,2,2-trifluoroethyl)-1,2,3,4,4a,5-hexahydrodipyrido[1,2-b:2′,1′-f][1,2,4]triazine-6,8-dione] | 162 nM
10 | CN1C(=O)c2c(O)c(=O)ccn2N2C(c3ccccc3F)C(CC(F)F)CCC12 (single isomer, unassigned) [Compound 113A, 2-(2,2-difluoroethyl)-1-(2-fluorophenyl)-7-hydroxy-5-methyl-1,2,3,4,4a,5-hexahydrodipyrido[1,2-b:2′,1′-f][1,2,4]triazine-6,8-dione] | 3440 nM
11 | CN1C(=O)c2c(O)c(=O)ccn2N2C(c3ccccc3F)C(CC(F)F)CCC12 (single isomer, unassigned) [Compound 113B, 2-(2,2-difluoroethyl)-1-(2-fluorophenyl)-7-hydroxy-5-methyl-1,2,3,4,4a,5-hexahydrodipyrido[1,2-b:2′,1′-f][1,2,4]triazine-6,8-dione] | 7.3 nM
12 | CN1C(=O)c2c(O)c(=O)ccn2N2C(c3ccccc3)C(CC3CC3(F)F)CCC12 (single isomer, unassigned) [Compound 114A, 2-((2,2-difluorocyclopropyl)methyl)-7-hydroxy-5-methyl-1-phenyl-1,2,3,4,4a,5-hexahydrodipyrido[1,2-b:2′,1′-f][1,2,4]triazine-6,8-dione] | > 8100 nM
13 | CN1C(=O)c2c(O)c(=O)ccn2N2C(c3ccccc3)C(CC3CC3(F)F)CCC12 (single isomer, unassigned) [Compound 114B, 2-((2,2-difluorocyclopropyl)methyl)-7-hydroxy-5-methyl-1-phenyl-1,2,3,4,4a,5-hexahydrodipyrido[1,2-b:2′,1′-f][1,2,4]triazine-6,8-dione] | > 8100 nM
14 | CN1C(=O)c2c(O)c(=O)ccn2N2C(c3ccccc3)C(CC3CC3(F)F)CCC12 (single isomer, unassigned) [Compound 114C, 2-((2,2-difluorocyclopropyl)methyl)-7-hydroxy-5-methyl-1-phenyl-1,2,3,4,4a,5-hexahydrodipyrido[1,2-b:2′,1′-f][1,2,4]triazine-6,8-dione] | 5.3 nM
15 | CN1C(=O)c2c(O)c(=O)ccn2N2C(c3ccccc3)C(CC3CC3(F)F)CCC12 (single isomer, unassigned) [Compound 114D, 2-((2,2-difluorocyclopropyl)methyl)-7-hydroxy-5-methyl-1-phenyl-1,2,3,4,4a,5-hexahydrodipyrido[1,2-b:2′,1′-f][1,2,4]triazine-6,8-dione] | 2.3 nM
16 | CN1C(=O)c2c(O)c(=O)ccn2N2C(c3ccccc3)C(CCC3CC3)CCC12 (single isomer, unassigned) [Compound 115A, 2-(2-cyclopropylethyl)-7-hydroxy-5-methyl-1-phenyl-1,2,3,4,4a,5-hexahydrodipyrido[1,2-b:2′,1′-f][1,2,4]triazine-6,8-dione] | > 8100 nM
17 | CN1C(=O)c2c(O)c(=O)ccn2N2C(c3ccccc3)C(CCC3CC3)CCC12 (single isomer, unassigned) [Compound 115B, 2-(2-cyclopropylethyl)-7-hydroxy-5-methyl-1-phenyl-1,2,3,4,4a,5-hexahydrodipyrido[1,2-b:2′,1′-f][1,2,4]triazine-6,8-dione] | > 8100 nM
18 | CN1C(=O)c2c(O)c(=O)ccn2N2C(c3ccccc3)C(CCC3CC3)CCC12 (single isomer, unassigned) [Compound 115C, 2-(2-cyclopropylethyl)-7-hydroxy-5-methyl-1-phenyl-1,2,3,4,4a,5-hexahydrodipyrido[1,2-b:2′,1′-f][1,2,4]triazine-6,8-dione] | 2.7 nM
19 | CN1C(=O)c2c(O)c(=O)ccn2N2C(c3ccccc3)C(CCC3CC3)CCC12 (single isomer, unassigned) [Compound 115D, 2-(2-cyclopropylethyl)-7-hydroxy-5-methyl-1-phenyl-1,2,3,4,4a,5-hexahydrodipyrido[1,2-b:2′,1′-f][1,2,4]triazine-6,8-dione] | 6.9 nM
20 | CN1C(=O)c2c(O)c(=O)ccn2N2C(c3ccccc3)C(c3cccc(F)c3F)CCC12 (single isomer, unassigned) [Compound 116A, 2-(2,3-difluorophenyl)-7-hydroxy-5-methyl-1-phenyl-1,2,3,4,4a,5-hexahydrodipyrido[1,2-b:2′,1′-f][1,2,4]triazine-6,8-dione] | 6200 nM
21 | CN1C(=O)c2c(O)c(=O)ccn2N2C(c3ccccc3)C(c3cccc(F)c3F)CCC12 (single isomer, unassigned) [Compound 116B, 2-(2,3-difluorophenyl)-7-hydroxy-5-methyl-1-phenyl-1,2,3,4,4a,5-hexahydrodipyrido[1,2-b:2′,1′-f][1,2,4]triazine-6,8-dione] | 6.9 nM
22 | CN1C(=O)c2c(O)c(=O)ccn2N2C(c3ccccc3)C(Cc3ccccc3)CCC12 (single isomer, unassigned) [Compound 117A, 2-benzyl-7-hydroxy-5-methyl-1-phenyl-1,2,3,4,4a,5-hexahydrodipyrido[1,2-b:2′,1′-f][1,2,4]triazine-6,8-dione] | 3530 nM
23 | CN1C(=O)c2c(O)c(=O)ccn2N2C(c3ccccc3)C(Cc3ccccc3)CCC12 (single isomer, unassigned) [Compound 117B, 2-benzyl-7-hydroxy-5-methyl-1-phenyl-1,2,3,4,4a,5-hexahydrodipyrido[1,2-b:2′,1′-f][1,2,4]triazine-6,8-dione] | 113 nM
24 | CN1C(=O)c2c(O)c(=O)ccn2N2C(c3ccccc3)C(CC(F)(F)F)CCC12 (single isomer, unassigned) [Compound 118A, 7-hydroxy-5-methyl-1-phenyl-2-(2,2,2-trifluoroethyl)-1,2,3,4,4a,5-hexahydrodipyrido[1,2-b:2′,1′-f][1,2,4]triazine-6,8-dione] | > 8100 nM
25 | CN1C(=O)c2c(O)c(=O)ccn2N2C(c3ccccc3)C(CC(F)(F)F)CCC12 (single isomer, unassigned) [Compound 118B, 7-hydroxy-5-methyl-1-phenyl-2-(2,2,2-trifluoroethyl)-1,2,3,4,4a,5-hexahydrodipyrido[1,2-b:2′,1′-f][1,2,4]triazine-6,8-dione] | 3.1 nM
26 | CN1C(=O)c2c(O)c(=O)ccn2N2C(c3ccccc3Cl)C(CC(F)(F)F)CCC12 (single isomer, unassigned) [Compound 119A, 1-(2-chlorophenyl)-7-hydroxy-5-methyl-2-(2,2,2-trifluoroethyl)-1,2,3,4,4a,5-hexahydrodipyrido[1,2-b:2′,1′-f][1,2,4]triazine-6,8-dione] | 3080 nM
27 | CN1C(=O)c2c(O)c(=O)ccn2N2C(c3ccccc3Cl)C(CC(F)(F)F)CCC12 (single isomer, unassigned) [Compound 119B, 1-(2-chlorophenyl)-7-hydroxy-5-methyl-2-(2,2,2-trifluoroethyl)-1,2,3,4,4a,5-hexahydrodipyrido[1,2-b:2′,1′-f][1,2,4]triazine-6,8-dione] | 2.7 nM
28 | Cc1ccccc1C1C(CC(F)(F)F)CCC2N(C)C(=O)c3c(O)c(=O)ccn3N12 (single isomer, unassigned) [Compound 120A, 7-hydroxy-5-methyl-1-(o-tolyl)-2-(2,2,2-trifluoroethyl)-1,2,3,4,4a,5-hexahydrodipyrido[1,2-b:2′,1′-f][1,2,4]triazine-6,8-dione] | 2720 nM
